Results taken from patent US6878742B2, “Heterocyclic sulfonamide inhibitors of beta amyloid production” (Wyeth, priority 2000, dated 2005).
“And” between values parts separate entries of the source, which are not always exact repeats. Identical values can stand only once. Like-named read-outs stand apart in the source and are kept apart here.

Tested on: amyloid precursor protein (APP) proteolysis
Assay: Repressor Release Assay (RRA)
Format: cell-based
Settings: for fold induction at 20 µg/mL / fold induction at 10 µg/mL: read-out: APPI Fold Increase
In short: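 CHO-K1 cells grown in DMEM with 10% fetal bovine serum were transiently co-transfected with pRSVO-luc and APP-lacI constructs via Lipofectamine Plus, plated into opaque 96-well plates, and exposed to diluted compound in duplicate for 36-48 hours at 37° C. LucLite luciferase signal was read on a TopCount and expressed as fold increase in relative light units over Hepes/DMSO diluent control.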

[1] = Conc 20 μg/mL, luciferase activity over diluent control
[2] = Conc 10 μg/mL, luciferase activity over diluent control

Structure (SMILES): CC(C)(C)OC(=O)N1CCC([C@@H](CO)NS(=O)(=O)c2ccc(Cl)s2)CC1 [Example 209, 4-[1-(5-Chloro-thiophene-2-sulfonylamino)-2-hydroxy-ethyl]-piperidine-1-carboxylic acid tert-butyl ester]
- fold induction at 20 µg/mL [1]: 2.1

Structure (SMILES): O=S(=O)(N[C@H](CO)c1ccccc1)c1ccc(Br)s1 [Example 104, 5-bromo-N-[(S)-2-hydroxy-1-phenylethyl]thiophene-2-sulfonamide]
- fold induction at 20 µg/mL [1]: 2.5

Structure (SMILES): CC(C)C[C@@H](c1ccc(-c2ccccc2)cc1)[C@@H](CO)NS(=O)(=O)c1ccc(Cl)s1 [Example 55, N-[(1S,2S)-2-[1,1'-biphenyl]-4-yl-1-(hydroxymethyl)-4-methylpentyl]-5-chlorothiophene-2-sulfonamide]
- fold induction at 20 µg/mL [1]: 1.9

Structure (SMILES): CCNC(C)(CO)CNS(=O)(=O)c1ccc(Cl)s1 (centres unmarked) [Example 80]
- APPI Fold Increase [1]: 1.8 fold

Structure (SMILES): CC[C@H](C)[C@H](NS(=O)(=O)c1ccc(Cl)s1)C(C)(C)O [Example 162, 5-Chloro-N-[(S,S)-1-(1-hydroxy-1-methylethyl)-2-methylbutyl]thiophene-2-sulfonamide]
- fold induction at 10 µg/mL [2]: 2.6

Structure (SMILES): CC[C@H](C)[C@H](NS(=O)(=O)c1cccs1)C(O)c1ccc(N(C)C)cc1 (stereo partly drawn) [Example 154, N-{(S,S)-1-[[4-(dimethylamino)phenyl](hydroxy)methyl]-2-methylbutyl}thiophene-2-sulfonamide]
- fold induction at 10 µg/mL [2]: 4.23

Structure (SMILES): CC[C@H](C)[C@H](NS(=O)(=O)c1cccs1)C(O)C1CCCC1 (stereo partly drawn) [Example 140, N-{(S,S)-1-[cyclopentyl(hydroxy)methyl]-2-methylbutyl}thiophene-2-sulfonamide]
- fold induction at 10 µg/mL [2]: 2.57

Structure (SMILES): CC[C@H](C)[C@H](NS(=O)(=O)c1cccs1)C(O)CCC1OCCCO1 (stereo partly drawn) [Example 150, N-{(S)-4-(1,3-dioxan-2-yl)-2-hydroxy-1-[(S)-1-methylpropyl]butyl}thiophene-2-sulfonamide]
- fold induction at 10 µg/mL [2]: 1.6

Structure (SMILES): CC[C@@H](CO)NS(=O)(=O)c1ccc(Cl)s1 [Example 100, 5-chloro-N-[(S)-1-(hydroxymethyl)propyl]thiophene-2-sulfonamide]
- fold induction at 20 µg/mL [1]: 1.5

Structure (SMILES): CC[C@H](C)[C@H](NS(=O)(=O)c1ccc(Cl)s1)C(O)c1ccc(N(C)C)cc1 (stereo partly drawn) [Example 139, 5-chloro-N-{(S,S)-1-[[4-(dimethylamino)phenyl](hydroxy)methyl]-2-methylbutyl}thiophene-2-sulfonamide]
- fold induction at 10 µg/mL [2]: 3.97

Structure (SMILES): CC[C@H](C)[C@@H](CO)N(CCOc1ccccc1)S(=O)(=O)c1ccc(Cl)s1 [Example 87, 5-Chloro-N-[(1S,2S)-1-(hydroxymethyl)-2-methylbutyl]-N-(2-phenoxyethyl)thiophene-2-sulfonamide]
- fold induction at 20 µg/mL [1]: 3.1

Structure (SMILES): CCCC(C)C(CO)NS(=O)(=O)c1ccc(Cl)s1 (centres unmarked) [Example 20, 5-chloro-N-[1-(hydroxymethyl)-2-methylpentyl]thiophene-2-sulfonamide]
- fold induction at 20 µg/mL: 5

Structure (SMILES): CCC(CC)[C@@H](CO)NS(=O)(=O)c1cccs1 [Example 226, N-[(S)-2-Ethyl-1-(hydroxymethyl)butyl]thiophene-2-sulfonamide]
- fold induction at 20 µg/mL [1]: 7.6

Structure (SMILES): CC(C)(CO)NS(=O)(=O)c1ccc(Cl)s1 [Example 92, 5-chloro-N-(2-hydroxy-1,1-dimethylethyl)thiophene-2-sulfonamide]
- fold induction at 20 µg/mL [1]: 1.5

Structure (SMILES): CCCCC[C@H](c1ccc(OC)cc1)[C@@H](CO)NS(=O)(=O)c1ccc(Br)s1 [Example 64, 5-bromo-N-[(1S,2R)-1-(hydroxymethyl)-2-(4-methoxyphenyl)heptyl]thiophene-2-sulfonamide]
- fold induction at 20 µg/mL [1]: 2.9

Structure (SMILES): CC[C@H](C)[C@@H](CO)NS(=O)(=O)c1cc(Cl)sc1Cl [Example 5]
- APPI Fold Increase (Conc 0.3 μg/mL, luciferase activity over diluent control): 0.9 fold
- APPI Fold Increase (Conc 1 μg/mL, luciferase activity over diluent control): 0.9 fold
- APPI Fold Increase (Conc 3 μg/mL, luciferase activity over diluent control): 1.1 fold
- APPI Fold Increase [2]: 1.1 fold

Structure (SMILES): CC=C(C)C(O)C(NS(=O)(=O)c1ccc(Cl)s1)C(C)CC (mixture of isomers) [Example 135]
- APPI Fold Increase [2]: 1.93 fold and 1.75 fold
